In ChEMBL document CHEMBL1155072, “Urotensin-II receptor antagonists: synthesis and SAR of N-cyclic azaalkyl benzamides” (Bioorg Med Chem Lett, 2008):

Experiments:
[1] = target: T1, Urotensin-2 receptor (Homo sapiens, UniProt Q9UKP6); assay: Displacement of [I125]hU2 from human recombinant urotensin 2 receptor expressed in HEK293 cells; format: cell-based
T1 sequence (Q9UKP6 whole entry): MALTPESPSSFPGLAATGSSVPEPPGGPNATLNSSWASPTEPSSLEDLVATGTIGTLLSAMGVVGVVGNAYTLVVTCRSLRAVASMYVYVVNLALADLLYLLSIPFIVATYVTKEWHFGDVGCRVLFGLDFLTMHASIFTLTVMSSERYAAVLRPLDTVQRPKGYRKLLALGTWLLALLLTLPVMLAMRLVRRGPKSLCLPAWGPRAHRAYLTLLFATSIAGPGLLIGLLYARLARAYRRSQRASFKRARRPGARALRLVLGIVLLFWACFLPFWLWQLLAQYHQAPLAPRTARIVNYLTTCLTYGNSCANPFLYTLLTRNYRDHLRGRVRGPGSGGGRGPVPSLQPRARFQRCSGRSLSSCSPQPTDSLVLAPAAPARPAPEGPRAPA

[2] = target: 5-hydroxytryptamine receptor 2B (Homo sapiens, UniProt P41595); assay: Binding affinity at 5HT2B receptor
[3] = target: Beta-2 adrenergic receptor (Homo sapiens, UniProt P07550); assay: Binding affinity to beta 2 adrenergic receptor
[4] = target: T2, 5-hydroxytryptamine receptor 1F (Homo sapiens, UniProt P30939); assay: Binding affinity to 5HT1F receptor
T2 sequence (P30939 whole entry): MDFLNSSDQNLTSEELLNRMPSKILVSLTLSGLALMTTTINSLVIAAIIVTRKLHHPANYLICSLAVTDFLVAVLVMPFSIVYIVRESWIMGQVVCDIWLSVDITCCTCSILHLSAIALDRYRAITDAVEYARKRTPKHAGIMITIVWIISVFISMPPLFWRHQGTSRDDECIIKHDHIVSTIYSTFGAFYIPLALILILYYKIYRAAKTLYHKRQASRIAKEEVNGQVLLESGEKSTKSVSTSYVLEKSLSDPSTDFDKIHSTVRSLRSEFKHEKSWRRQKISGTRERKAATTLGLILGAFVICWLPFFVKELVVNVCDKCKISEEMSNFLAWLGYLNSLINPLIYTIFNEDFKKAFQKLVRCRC

[5] = target: T3, 5-hydroxytryptamine receptor 1A (Homo sapiens, UniProt P08908); assay: Binding affinity to 5HT1A receptor
T3 sequence (P08908 whole entry): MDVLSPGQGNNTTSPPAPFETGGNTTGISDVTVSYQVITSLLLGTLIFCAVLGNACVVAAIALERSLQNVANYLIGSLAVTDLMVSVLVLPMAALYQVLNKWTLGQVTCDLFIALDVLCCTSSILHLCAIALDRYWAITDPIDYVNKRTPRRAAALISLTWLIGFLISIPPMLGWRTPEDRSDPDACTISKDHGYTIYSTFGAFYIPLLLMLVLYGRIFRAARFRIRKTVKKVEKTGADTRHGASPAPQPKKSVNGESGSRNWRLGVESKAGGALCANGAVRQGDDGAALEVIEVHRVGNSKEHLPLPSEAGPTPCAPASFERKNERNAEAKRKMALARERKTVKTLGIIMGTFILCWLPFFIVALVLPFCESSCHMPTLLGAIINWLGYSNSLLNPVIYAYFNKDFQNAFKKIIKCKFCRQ

[6] = target: Cytochrome P450 3A4 (Homo sapiens) (UniProt P08684); assay: Inhibition of CYP3A4
[7] = target: Cytochrome P450 2D6 (Homo sapiens, UniProt P10635); assay: Inhibition of CYP2D6; format: ADME
[8] = target: D(2) dopamine receptor (Homo sapiens, UniProt P14416); assay: Binding affinity to dopamine D2 receptor
[9] = target: T4, 5-hydroxytryptamine receptor 2C (Homo sapiens, UniProt P28335); assay: Binding affinity at 5HT2C receptor
T4 sequence (P28335 whole entry): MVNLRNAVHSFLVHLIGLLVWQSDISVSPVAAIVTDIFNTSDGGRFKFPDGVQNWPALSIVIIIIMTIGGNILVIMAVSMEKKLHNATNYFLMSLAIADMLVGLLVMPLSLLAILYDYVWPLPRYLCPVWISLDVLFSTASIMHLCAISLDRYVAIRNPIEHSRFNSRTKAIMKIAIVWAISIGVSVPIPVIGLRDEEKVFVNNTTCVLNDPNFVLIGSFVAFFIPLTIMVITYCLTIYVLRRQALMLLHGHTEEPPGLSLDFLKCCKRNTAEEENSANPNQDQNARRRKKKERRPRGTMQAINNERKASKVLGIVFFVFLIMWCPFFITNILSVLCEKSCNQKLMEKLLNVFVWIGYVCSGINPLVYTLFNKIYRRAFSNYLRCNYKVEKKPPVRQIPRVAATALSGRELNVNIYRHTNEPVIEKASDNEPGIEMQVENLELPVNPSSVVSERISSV

[10] = target: 5-hydroxytryptamine receptor 1D (Homo sapiens, UniProt P28221); assay: Binding affinity to 5HT1D receptor
[11] = target: T1, Urotensin-2 receptor; assay: Antagonist activity at human recombinant urotensin 2 receptor expressed in HEK293 cells assessed as inhibition of urotensin 2-induced calcium mobilization by FLIPR assay; format: functional, cell-based
[12] = target: 5-hydroxytryptamine receptor 1E (Homo sapiens, UniProt P28566); assay: Binding affinity to 5HT1E receptor
[13] = target: 5-hydroxytryptamine receptor 6 (Homo sapiens, UniProt P50406); assay: Binding affinity to 5HT6 receptor
Sequence of 5-hydroxytryptamine receptor 6 (P50406 whole entry): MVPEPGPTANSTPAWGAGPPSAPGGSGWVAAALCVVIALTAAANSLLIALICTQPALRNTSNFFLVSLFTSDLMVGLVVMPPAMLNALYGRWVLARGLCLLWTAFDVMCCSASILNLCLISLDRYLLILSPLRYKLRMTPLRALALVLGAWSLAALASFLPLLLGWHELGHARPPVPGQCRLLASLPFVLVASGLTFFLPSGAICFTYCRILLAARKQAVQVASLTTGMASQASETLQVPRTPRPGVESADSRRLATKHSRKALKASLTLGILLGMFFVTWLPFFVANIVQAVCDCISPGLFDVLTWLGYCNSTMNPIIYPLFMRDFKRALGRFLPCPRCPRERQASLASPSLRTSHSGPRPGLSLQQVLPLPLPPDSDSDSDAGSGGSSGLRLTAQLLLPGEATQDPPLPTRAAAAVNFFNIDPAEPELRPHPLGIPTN

Sequence of 5-hydroxytryptamine receptor 1E (P28566 whole entry): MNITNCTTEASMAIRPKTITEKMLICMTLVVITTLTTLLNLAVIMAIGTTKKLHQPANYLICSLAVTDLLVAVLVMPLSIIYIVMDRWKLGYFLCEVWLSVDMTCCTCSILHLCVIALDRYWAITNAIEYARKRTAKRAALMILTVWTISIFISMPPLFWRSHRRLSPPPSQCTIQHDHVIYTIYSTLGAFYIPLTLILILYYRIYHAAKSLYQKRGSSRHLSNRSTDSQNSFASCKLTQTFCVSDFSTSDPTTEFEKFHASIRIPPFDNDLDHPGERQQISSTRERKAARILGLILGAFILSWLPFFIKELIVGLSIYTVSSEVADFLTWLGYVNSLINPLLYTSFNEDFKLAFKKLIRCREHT
Sequence of 5-hydroxytryptamine receptor 2B (P41595 whole entry): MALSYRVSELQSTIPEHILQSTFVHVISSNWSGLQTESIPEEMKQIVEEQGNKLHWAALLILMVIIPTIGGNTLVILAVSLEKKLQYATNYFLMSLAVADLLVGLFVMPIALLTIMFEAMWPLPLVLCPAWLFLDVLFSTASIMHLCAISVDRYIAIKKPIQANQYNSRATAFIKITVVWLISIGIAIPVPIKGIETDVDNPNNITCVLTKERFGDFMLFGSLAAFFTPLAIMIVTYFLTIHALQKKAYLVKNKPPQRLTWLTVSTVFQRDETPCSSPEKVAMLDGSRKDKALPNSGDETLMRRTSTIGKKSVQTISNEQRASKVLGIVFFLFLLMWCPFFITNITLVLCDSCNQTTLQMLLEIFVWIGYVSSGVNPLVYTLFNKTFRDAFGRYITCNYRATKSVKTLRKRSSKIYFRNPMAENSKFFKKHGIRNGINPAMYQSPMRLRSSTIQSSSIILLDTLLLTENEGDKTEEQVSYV
Sequence of Beta-2 adrenergic receptor (P07550 whole entry): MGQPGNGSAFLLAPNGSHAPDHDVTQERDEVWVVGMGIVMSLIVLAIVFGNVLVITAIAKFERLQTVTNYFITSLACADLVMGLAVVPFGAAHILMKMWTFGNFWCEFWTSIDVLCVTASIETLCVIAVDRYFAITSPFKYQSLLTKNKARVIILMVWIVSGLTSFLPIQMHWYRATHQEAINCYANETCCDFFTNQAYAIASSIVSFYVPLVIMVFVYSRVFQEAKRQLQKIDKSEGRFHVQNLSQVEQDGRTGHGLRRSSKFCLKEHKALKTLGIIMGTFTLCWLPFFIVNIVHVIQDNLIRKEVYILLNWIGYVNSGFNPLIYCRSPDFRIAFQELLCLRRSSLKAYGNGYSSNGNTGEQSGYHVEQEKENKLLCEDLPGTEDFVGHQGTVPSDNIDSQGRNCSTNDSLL
Sequence of Cytochrome P450 3A4 (Homo sapiens) (P08684 whole entry, looked up): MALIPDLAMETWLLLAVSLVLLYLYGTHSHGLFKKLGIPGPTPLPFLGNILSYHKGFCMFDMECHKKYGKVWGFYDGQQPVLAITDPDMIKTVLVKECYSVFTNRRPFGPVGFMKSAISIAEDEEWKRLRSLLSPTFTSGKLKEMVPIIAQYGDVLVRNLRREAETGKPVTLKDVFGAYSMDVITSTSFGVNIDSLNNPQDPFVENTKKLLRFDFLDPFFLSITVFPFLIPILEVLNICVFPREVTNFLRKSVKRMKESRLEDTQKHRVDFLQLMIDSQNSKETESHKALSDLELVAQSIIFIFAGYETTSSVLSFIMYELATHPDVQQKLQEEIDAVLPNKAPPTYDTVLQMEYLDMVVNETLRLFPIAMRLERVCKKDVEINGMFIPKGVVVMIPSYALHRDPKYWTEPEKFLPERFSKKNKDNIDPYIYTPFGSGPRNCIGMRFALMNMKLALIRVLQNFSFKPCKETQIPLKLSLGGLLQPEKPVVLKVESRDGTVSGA
Sequence of D(2) dopamine receptor (P14416 whole entry): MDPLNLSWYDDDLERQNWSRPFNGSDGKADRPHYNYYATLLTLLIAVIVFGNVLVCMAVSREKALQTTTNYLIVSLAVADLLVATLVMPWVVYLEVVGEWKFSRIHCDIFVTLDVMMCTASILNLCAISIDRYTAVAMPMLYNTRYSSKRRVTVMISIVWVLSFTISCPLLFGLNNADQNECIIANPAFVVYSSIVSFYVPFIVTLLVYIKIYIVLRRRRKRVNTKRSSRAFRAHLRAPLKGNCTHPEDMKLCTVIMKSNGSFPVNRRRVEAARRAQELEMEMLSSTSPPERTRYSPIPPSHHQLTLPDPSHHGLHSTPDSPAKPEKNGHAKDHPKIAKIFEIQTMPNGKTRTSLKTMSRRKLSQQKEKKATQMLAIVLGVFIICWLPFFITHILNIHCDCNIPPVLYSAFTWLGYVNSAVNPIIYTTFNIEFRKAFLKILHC
Sequence of Cytochrome P450 2D6 (P10635 whole entry): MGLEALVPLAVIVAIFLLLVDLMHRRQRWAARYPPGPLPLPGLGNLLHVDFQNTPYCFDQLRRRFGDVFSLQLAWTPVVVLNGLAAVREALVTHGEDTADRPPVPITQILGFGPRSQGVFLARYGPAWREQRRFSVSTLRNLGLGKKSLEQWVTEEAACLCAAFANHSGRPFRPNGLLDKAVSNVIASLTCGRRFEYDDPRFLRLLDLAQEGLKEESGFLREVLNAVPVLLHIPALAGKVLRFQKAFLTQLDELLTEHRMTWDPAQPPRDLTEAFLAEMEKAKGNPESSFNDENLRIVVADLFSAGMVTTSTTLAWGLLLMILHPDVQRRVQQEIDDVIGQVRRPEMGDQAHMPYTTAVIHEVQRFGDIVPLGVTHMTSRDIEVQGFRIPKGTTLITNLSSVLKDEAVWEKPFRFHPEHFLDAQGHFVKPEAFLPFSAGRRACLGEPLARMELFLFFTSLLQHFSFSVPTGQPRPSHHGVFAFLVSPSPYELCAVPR
Sequence of 5-hydroxytryptamine receptor 1D (P28221 whole entry): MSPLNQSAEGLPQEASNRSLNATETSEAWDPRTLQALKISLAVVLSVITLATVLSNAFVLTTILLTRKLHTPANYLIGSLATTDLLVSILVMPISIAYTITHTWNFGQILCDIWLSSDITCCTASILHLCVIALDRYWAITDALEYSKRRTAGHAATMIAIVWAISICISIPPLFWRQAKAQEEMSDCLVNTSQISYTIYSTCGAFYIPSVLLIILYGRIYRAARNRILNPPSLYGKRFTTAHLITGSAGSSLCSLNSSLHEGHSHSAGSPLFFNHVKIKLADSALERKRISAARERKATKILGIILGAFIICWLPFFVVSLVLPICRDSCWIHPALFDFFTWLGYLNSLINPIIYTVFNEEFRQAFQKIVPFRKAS

Ki [1] [nM]	Structure (SMILES)	also measured
230	O=C(N[C@H]1CCN(Cc2ccc(OC3CCN(Cc4ccccc4)CC3)c(Br)c2)C1)c1ccc(Cl)c(Cl)c1	–
71	O=C(NC1CCCCN(S(=O)(=O)c2ccc(OC3CCNCC3)c(Br)c2)C1)c1ccc(Cl)c(Cl)c1 (racemic)	–
12	CC(C)C[C@H](NC(=O)c1cc2ccccc2s1)C(=O)N[C@H]1CCN(S(=O)(=O)c2ccc(OC3CCNCC3)c(Br)c2)C1	–
320	CN(C)CCCOc1ccc(CN2CC[C@H](NC(=O)c3ccc(Br)cc3)C2)cc1	–
3500	O=C(N[C@H]1CCN(Cc2ccc(OCCN3CCOCC3)c(Br)c2)C1)c1ccc(Cl)c(Cl)c1	–
42	O=C(N[C@H]1CCN(CCc2ccc(OC3CCNCC3)cc2)C1)c1ccc(Cl)c(Cl)c1	–
10	O=C(N[C@H]1CCN(CCc2ccc(OC3CCNCC3)c(Br)c2)C1)c1ccc(Cl)c(Cl)c1	–
380	O=C(N[C@@H]1CCN(S(=O)(=O)c2ccc(OC3CCNCC3)c(Br)c2)C1)c1ccc(Cl)c(Cl)c1	–
62	O=C(N[C@H]1CCN(CCc2ccc(OC3CCNCC3)c(F)c2)C1)c1ccc(Cl)c(Cl)c1	–
36	COc1cc(CCN2CC[C@H](NC(=O)c3ccc(Cl)c(Cl)c3)C2)ccc1OC1CCNCC1	–
15	O=C(N[C@H]1CCN(CCc2ccc(OC3CCNCC3)c(Cl)c2)C1)c1ccc(Cl)c(Cl)c1	–
5.5	O=C(N[C@H]1CCN(Cc2ccc(O[C@@H]3CCNC3)c(Br)c2)C1)c1ccc(Cl)c(Cl)c1	–
120	O=C(N[C@H]1CCN(S(=O)(=O)c2ccc(OC3CCNCC3)c(Br)c2)C1)c1ccc(Cl)c(Cl)c1	–
47	CN1CCC(Oc2ccc(CN3CC[C@H](NC(=O)c4ccc(Cl)c(Cl)c4)C3)cc2Cl)C1 (mixture of isomers)	–
97	CN1CCC(Oc2ccc(CN3CCC(NC(=O)c4ccc(Cl)c(Cl)c4)C3)cc2)C1 (racemic)	–
110	CC(C)C[C@H](NC(=O)c1cc2ccccc2s1)C(=O)N[C@H]1CCN(Cc2ccc(OCCCN(C)C)cc2)C1	–
1000	O=C(N[C@H]1CCN(Cc2ccc(OCCN3CCCC3)c(Br)c2)C1)c1ccc(Cl)c(Cl)c1	–

Ki [1] [nM]	Structure (SMILES)	also measured
41	CN1CCC(Oc2ccc(CN3CCC(NC(=O)c4ccc(Cl)c(Cl)c4)C3)cc2Br)C1 (racemic)	–
44	O=C(N[C@H]1CCN(Cc2ccc(O[C@H]3CCNC3)c(Br)c2)C1)c1ccc(Cl)c(Cl)c1	–
140	O=C(NC1CCN(S(=O)(=O)c2ccc(OC3CCNCC3)c(Br)c2)CC1)c1ccc(Cl)c(Cl)c1	–
500	CN(C)CCCOc1ccc(CN2CCC(NC(=O)c3ccc(Cl)c(Cl)c3)CC2)cc1	–
> 3000	CN(C)CCCOc1cccc(CN2CC[C@H](NC(=O)c3ccc(Cl)c(Cl)c3)C2)c1	–
350	CN(C)CCCOc1ccc(CN2CC[C@@H](NC(=O)c3ccc(Br)cc3)C2)cc1	–
> 10000	CN(C)CCCOc1ccccc1CN1CC[C@H](NC(=O)c2ccc(Cl)c(Cl)c2)C1	–
4	O=C(N[C@H]1CCN(Cc2ccc(OC3CCNCC3)c(Br)c2)C1)c1ccc(Cl)c(Cl)c1	Ki [2]: 140 nM; Ki [3]: > 10000 nM; Ki [4]: 7200 nM; Ki [5]: 38 nM; IC50 [6]: 1900 nM; IC50 [7]: 2200 nM; Ki [8]: 100 nM; Ki [9]: 85 nM; Ki [10]: 140 nM; IC50 [11]: 4 nM; Ki [12]: > 10000 nM; Ki [13]: 4100 nM
61	CN(C)CCCOc1ccc(CN2CC[C@H](NC(=O)c3ccc(Cl)c(Cl)c3)C2)cc1Br	–
18	CC(C)C[C@H](NC(=O)c1cc2ccccc2s1)C(=O)N[C@H]1CCN(CCc2ccc(O[C@@H]3CCNC3)c(Br)c2)C1	–
108	Cc1cc(CN2CC[C@H](NC(=O)c3ccc(Cl)c(Cl)c3)C2)ccc1OC1CCN(C)C1 (mixture of isomers)	–
–	CN(C)CCCOc1ccc(CN2CC[C@H](NC(=O)c3ccc(Cl)c(Cl)c3)C2)cc1	IC50 [11]: 170 nM
69	O=C(N[C@H]1CCN(CCc2ccc(OC3CCNCC3)c([N+](=O)[O-])c2)C1)c1ccc(Cl)c(Cl)c1	–
> 10000	CN(C)CCCOc1ccc(CN(C)CCCNC(=O)c2ccc(Cl)c(Cl)c2)cc1	–
3	CC(C)C[C@H](NC(=O)c1cc2ccccc2s1)C(=O)N[C@H]1CCN(Cc2ccc(OC3CCNCC3)c(Br)c2)C1	–
> 10000	CN(C)CCCOc1ccc(CN2CCN(C(=O)c3ccc(Cl)c(Cl)c3)CC2)cc1	–
1500	O=C(N[C@H]1CCN(Cc2ccc(OCCN3CCNCC3)c(Br)c2)C1)c1ccc(Cl)c(Cl)c1	–
